From patent US8846698B2, “Pyrrolo[2,3-d]pyrimidine tropomysin-related kinase inhibitors” (Pfizer Limited, priority 2011, dated 2014) come the findings set out here.

The assay concerns the target TRKA (Homo sapiens (Human), UniProt P04629). The experiment in a line: Isolated TRK enzyme assay (HTRF KinEASE-TK), TRKA. The conditions noted are these: read-out: Trka enzyme (IC50). The class given is biochemical.

Sequence of TRKA (P04629 441-796): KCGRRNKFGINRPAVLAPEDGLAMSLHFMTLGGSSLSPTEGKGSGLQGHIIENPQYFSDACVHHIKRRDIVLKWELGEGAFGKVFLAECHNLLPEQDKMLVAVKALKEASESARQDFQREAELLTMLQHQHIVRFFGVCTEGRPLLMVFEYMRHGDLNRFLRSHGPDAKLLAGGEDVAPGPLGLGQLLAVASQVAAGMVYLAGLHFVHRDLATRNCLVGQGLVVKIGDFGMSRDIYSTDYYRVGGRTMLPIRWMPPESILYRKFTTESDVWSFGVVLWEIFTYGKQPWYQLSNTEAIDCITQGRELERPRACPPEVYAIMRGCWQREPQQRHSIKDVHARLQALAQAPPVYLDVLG

Consider `CC(C)n1cc(C(=O)c2cncc(NC(=O)Cn3ccc(C4CC4)n3)c2)c2cncnc21` [Example 90, 2-(3-cyclopropyl-1H-pyrazol-1-yl)-N-{5-[(7-isopropyl-7H-pyrrolo[2,3-d]pyrimidin-5-yl)carbonyl]pyridin-3-yl}acetamide], for which the IC50 came to 8.81 nM.
As for `CC(C)n1cc(C(=O)c2cncc(NC(=O)Cc3cncc(OC4CC4)c3)c2)c2cncnc21` [Example 91, 2-[5-(cyclopropyloxy)pyridin-3-yl]-N-{5-[(7-isopropyl-7H-pyrrolo[2,3-d]pyrimidin-5-yl)carbonyl]pyridin-3-yl}acetamide], the figure is 1030 nM; as for `CC(C)n1cc(C(=O)c2cncc(NC(=O)Cc3ccc4c(c3)CCO4)c2)c2cncnc21` [Example 92, 2-(2,3-dihydro-1-benzofuran-5-yl)-N-{5-[(7-isopropyl-7H-pyrrolo[2,3-d]pyrimidin-5-yl)carbonyl]pyridin-3-yl}acetamide], 41.5 nM.
For `CC(C)n1cc(C(=O)c2cncc(NC(=O)Cn3cc4ccccc4n3)c2)c2cncnc21` [Example 93, 2-(2H-indazol-2-yl)-N-{5-[(7-isopropyl-7H-pyrrolo[2,3-d]pyrimidin-5-yl)carbonyl]pyridin-3-yl}acetamide], the IC50 turned out to be 12.4 nM.
In the case of `CC(C)n1cc(C(=O)c2cncc(NC(=O)Cn3cc4cc(F)ccc4n3)c2)c2cncnc21` [Example 94, 2-(5-fluoro-2H-indazol-2-yl)-N-{5-[(7-isopropyl-7H-pyrrolo[2,3-d]pyrimidin-5-yl)carbonyl]pyridin-3-yl}acetamide], the IC50 came to 54.8 nM.
For the compound `CC(C)n1cc(C(=O)c2cncc(NC(=O)Cn3ncc4cc(F)ccc43)c2)c2cncnc21` [Example 95, 2-(5-fluoro-1H-indazol-1-yl)-N-{5-[(7-isopropyl-7H-pyrrolo[2,3-d]pyrimidin-5-yl)carbonyl]pyridin-3-yl}acetamide], the IC50 stood at 3.95 nM.
The same measure for `Cc1cc(C(F)(F)F)nn1CC(=O)Nc1cncc(C(=O)c2cn(C(C)C)c3ncncc23)c1` [Example 96, N-{5-[(7-isopropyl-7H-pyrrolo[2,3-d]pyrimidin-5-yl)carbonyl]pyridin-3-yl}-2-[5-methyl-3-(trifluoromethyl)-1H-pyrazol-1-yl]acetamide]: 5.45 nM.
Regarding `CC(C)n1cc(C(=O)c2cncc(NC(=O)Cn3ccc(C(F)(F)F)n3)c2)c2cncnc21` [Example 97, N-{5-[(7-isopropyl-7H-pyrrolo[2,3-d]pyrimidin-5-yl)carbonyl]pyridin-3-yl}-2-[3-(trifluoromethyl)-1H-pyrazol-1-yl]acetamide], the IC50 turned out to be 4.86 nM.
For the compound `CC(C)n1cc(C(=O)c2cncc(NC(=O)Cc3ccc(Cl)cn3)c2)c2cncnc21` [Example 98, 2-(5-chloropyridin-2-yl)-N-{5-[(7-isopropyl-7H-pyrrolo[2,3-d]pyrimidin-5-yl)carbonyl]pyridin-3-yl}acetamide], the half-inhibitory concentration (IC50) was found to be 5.16 nM.
For the compound `CC(C)n1cc(C(=O)c2cncc(NC(=O)Cc3ccc4cccnc4c3)c2)c2cncnc21` [Example 100, N-{5-[(7-isopropyl-7H-pyrrolo[2,3-d]pyrimidin-5-yl)carbonyl]pyridin-3-yl}-2-quinolin-7-ylacetamide], the IC50 is 25.6 nM.
Take `CC(C)n1cc(C(=O)c2cncc(NC(=O)Cn3cc4cccc(F)c4n3)c2)c2cncnc21` [Example 101, 2-(7-fluoro-2H-indazol-2-yl)-N-{5-[(7-isopropyl-7H-pyrrolo[2,3-d]pyrimidin-5-yl)carbonyl]pyridin-3-yl}acetamide]: the IC50 is 204 nM.
The same measure for `CC(C)n1cc(C(=O)c2cncc(NC(=O)Cn3ncc4cccnc43)c2)c2cncnc21` [Example 102, N-{5-[(7-isopropyl-7H-pyrrolo[2,3-d]pyrimidin-5-yl)carbonyl]pyridin-3-yl}-2-(1H-pyrazolo[3,4-b]pyridin-1-yl)acetamide]: 42.9 nM; for `CC(C)n1cc(C(=O)c2cncc(NC(=O)Cn3ncc4ccccc43)c2)c2cncnc21` [Example 103, 2-(1H-indazol-1-yl)-N-{5-[(7-isopropyl-7H-pyrrolo[2,3-d]pyrimidin-5-yl)carbonyl]pyridin-3-yl}acetamide]: 41.7 nM.
Regarding `Cc1cc(C(C)C)nn1CC(=O)Nc1cncc(C(=O)c2cn(C(C)C)c3ncncc23)c1` [Example 104, 2-(3-isopropyl-5-methyl-1H-pyrazol-1-yl)-N-{5-[(7-isopropyl-7H-pyrrolo[2,3-d]pyrimidin-5-yl)carbonyl]pyridin-3-yl}acetamide], the IC50 was 20 nM.
Regarding `CC(C)c1cn(CC(=O)Nc2cncc(C(=O)c3cn(C(C)C)c4ncncc34)c2)nn1` [Example 105, N-{5-[(7-isopropyl-7H-pyrrolo[2,3-d]pyrimidin-5-yl)carbonyl]pyridin-3-yl}-2-(4-isopropyl-1H-1,2,3-triazol-1-yl)acetamide], the IC50 was found to be 25.6 nM.
Take `CC(C)n1cc(C(=O)c2cncc(NC(=O)Cn3cc(C(F)(F)F)nn3)c2)c2cncnc21` [Example 106, N-{5-[(7-isopropyl-7H-pyrrolo[2,3-d]pyrimidin-5-yl)carbonyl]pyridin-3-yl}-2-[4-(trifluoromethyl)-1H-1,2,3-triazol-1-yl]acetamide]: the IC50 amounted to 14.8 nM.
In the case of `CC(C)n1cc(C(=O)c2cncc(NC(=O)Cn3ncc4cccc(F)c43)c2)c2cncnc21` [Example 107, 2-(7-fluoro-1H-indazol-1-yl)-N-{5-[(7-isopropyl-7H-pyrrolo[2,3-d]pyrimidin-5-yl)carbonyl]pyridin-3-yl}acetamide], the IC50 is 12.3 nM.
In the case of `CC(C)n1cc(C(=O)c2cncc(NC(=O)Cn3nc4ccccc4n3)c2)c2cncnc21` [Example 108, 2-(2H-benzotriazol-2-yl)-N-{5-[(7-isopropyl-7H-pyrrolo[2,3-d]pyrimidin-5-yl)carbonyl]pyridin-3-yl}acetamide], the IC50 was found to be 7.63 nM.
As to `Cc1[nH]c2c(F)cccc2c1CC(=O)Nc1cncc(C(=O)c2cn(C(C)C)c3ncncc23)c1` [Example 109, 2-(7-fluoro-2-methyl-1H-indol-3-yl)-N-{5-[(7-isopropyl-7H-pyrrolo[2,3-d]pyrimidin-5-yl)carbonyl]pyridin-3-yl}acetamide], the IC50 was 65.1 nM.
As to `Cc1[nH]c2ccc(Cl)cc2c1CC(=O)Nc1cncc(C(=O)c2cn(C(C)C)c3ncncc23)c1` [Example 110, 2-(5-chloro-2-methyl-1H-indol-3-yl)-N-{5-[(7-isopropyl-7H-pyrrolo[2,3-d]pyrimidin-5-yl)carbonyl]pyridin-3-yl}acetamide], the IC50 was found to be 36.5 nM.
Take `CC(C)n1cc(C(=O)c2cncc(NC(=O)Cn3ccc4ccccc43)c2)c2cncnc21` [Example 111, 2-(1H-indol-1-yl)-N-{5-[(7-isopropyl-7H-pyrrolo[2,3-d]pyrimidin-5-yl)carbonyl]pyridin-3-yl}acetamide]: the IC50 came to 46.2 nM.
As for `CC(C)n1ncc(CC(=O)Nc2cncc(C(=O)c3cn(C(C)C)c4ncncc34)c2)c1C(F)(F)F` [Example 112, N-{5-[(7-isopropyl-7H-pyrrolo[2,3-d]pyrimidin-5-yl)carbonyl]pyridin-3-yl}-2-[1-isopropyl-5-(trifluoromethyl)-1H-pyrazol-4-yl]acetamide], the figure is 57.8 nM; as for `Cc1ccn(CC(=O)Nc2cncc(C(=O)c3cn(C(C)C)c4ncncc34)c2)n1` [Example 113, N-{5-[(7-isopropyl-7H-pyrrolo[2,3-d]pyrimidin-5-yl)carbonyl]pyridin-3-yl}-2-(3-methyl-1H-pyrazol-1-yl)acetamide], 300 nM.

The term IC50 denotes the concentration that gives 50% inhibition.
